Measured values published in patent EP0429856A2, “Pharmaceutical preparation containing a metal salt of ibuprofen and process for making same” (Dolorgiet GmbH & Co. KG, priority 1989, dated 1991).

Assay: Solubility of ibuprofen salts in saturated solutions at room temperature (HPLC, UV detection)
From the text: Zur Bestimmung der Löslichkeit der Ibuprofen-Salze werden bei Raumtemperatur gesättigte Lösungen hergestellt. Ein aliguoter Teil dieser Lösungen wird mit einem mit der Lösung mischbaren Lösungsmittel verdünnt und der Gehalt an Ibuprofen mittels HPLC über eine Reversed-Phase-Säule und UV-Detektion bestimmt.

[1] = 1,2-Propandiol/Glycerin/Wasser (2/4/3;v/v/v)
[2] = 1,2-Propandiol/Polyethylenglykol 400/Wasser (5/3/6;v/v/v)
[3] = Cabrylic/Capric Triglyceride (Miglyol 810)
[4] = Caprylic/Capric Triglyceride (Miglyol 812)
[5] = Ethanol/1,2-Propandiol/Wasser (1/4/4;v/v/v)
[6] = Polyoxyethylen-(7)-glycerin-kokosnußöfettsäure-ester
[7] = Polyoxyethylierte Olein-Glyceride (Labrafil M 1944 CS)

Row | Substance | Löslichkeit von Ibuprofen-Salzen bei Raumtemperatur (1,2-Propandiol) | Löslichkeit von Ibuprofen-Salzen bei Raumtemperatur [1] | Löslichkeit von Ibuprofen-Salzen bei Raumtemperatur [2] | Löslichkeit von Ibuprofen-Salzen bei Raumtemperatur [3] | Löslichkeit von Ibuprofen-Salzen bei Raumtemperatur [4] | Löslichkeit von Ibuprofen-Salzen bei Raumtemperatur (Ethanol) [mg Ibuprofen/ml] | Löslichkeit von Ibuprofen-Salzen bei Raumtemperatur [5] | Löslichkeit von Ibuprofen-Salzen bei Raumtemperatur (Glycerin) | Löslichkeit von Ibuprofen-Salzen bei Raumtemperatur (Glycerinmonoricinoleat) | Löslichkeit von Ibuprofen-Salzen bei Raumtemperatur (Isopropylmyristat) [mg Ibuprofen/ml] | Löslichkeit von Ibuprofen-Salzen bei Raumtemperatur (Paraffinum supl.) | Löslichkeit von Ibuprofen-Salzen bei Raumtemperatur (Polyethylenglykol 400) [mg Ibuprofen/ml] | Löslichkeit von Ibuprofen-Salzen bei Raumtemperatur [6] [mg Ibuprofen/ml] | Löslichkeit von Ibuprofen-Salzen bei Raumtemperatur [7] [mg Ibuprofen/ml] | Löslichkeit von Ibuprofen-Salzen bei Raumtemperatur (Wasser)
1 | Aluminiumdiibuprofen (1 : 2) [Ibuprofen-Al (2 : 1)] | 0,8 mg Ibuprofen/ml | < 0,1 mg Ibuprofen/ml | < 0,1 mg Ibuprofen/ml | 0,5 mg Ibuprofen/ml | 0,3 mg Ibuprofen/ml | 2 | < 0,1 mg Ibuprofen/ml | < 0,1 mg Ibuprofen/ml | 4,5 mg Ibuprofen/ml | 1 | < 0,1 mg Ibuprofen/ml | 2 | 6 | 4 | < 0,1 mg Ibuprofen/ml
2 | Ibuprofen-Magnesiumsalz [Ibuprofen-Mg] | 160 mg Ibuprofen/ml | 250 mg Ibuprofen/ml | 125 mg Ibuprofen/ml | 35 mg Ibuprofen/ml | 17 mg Ibuprofen/ml | 500 | 330 mg Ibuprofen/ml | 8 mg Ibuprofen/ml | 450 mg Ibuprofen/ml | 260 | 0,4 mg Ibuprofen/ml | 40 | 480 | 380 | 7 mg Ibuprofen/ml
